The values that follow come from patent US6512000B1, “Aminocarbonyl-substituted benzimidazoles having tryptase-inhibitory activity” (Boehringer Ingelheim Pharma KG, priority 1999, dated 2003).

Counter-ions that a name gives are not always drawn.

For the first test, the target named is T1, rh beta tryptase (Homo sapiens, UniProt P20231).
T1 construct: purchased Promega
T1 sequence (P20231 31-275): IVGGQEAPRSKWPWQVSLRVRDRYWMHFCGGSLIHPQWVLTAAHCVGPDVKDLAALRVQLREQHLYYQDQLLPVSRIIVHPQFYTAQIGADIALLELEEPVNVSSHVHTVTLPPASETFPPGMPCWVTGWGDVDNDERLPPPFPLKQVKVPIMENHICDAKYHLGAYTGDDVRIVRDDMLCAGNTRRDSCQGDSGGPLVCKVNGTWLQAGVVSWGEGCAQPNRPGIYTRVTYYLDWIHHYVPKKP
The experiment in a line: Tryptase inhibition test (cleavage of N-p-tosyl-Gly-Pro-Lys-para-nitroaniline, p-nitroaniline measured at 405 nm). Format: biochemical. As to conditions: concentration at which 50% of the tryptase enzyme activity is inhibited; substrate 0.6 mM, pH 7.4, 37° C. On the procedure: The compounds according to the invention are characterised by their tryptase-inhibiting activity. This ability to inhibit tryptase was investigated using the test described below.
The measurement is carried out in Tris HCl buffer (100 mM), which additionally contains calcium (5 mM) and heparin ([…]), at pH 7.4. The standard used is rh beta tryptase which may be obtained commercially from Promega, for example. The substrate used is N-p-tosyl-Gly-Pro-Lys-para-nitroaniline in a concentration of 0.6 mM. The substrate is digested with tryptase to form p-nitroaniline which can be measured at 405 nm. Usually, an incubation period of 5 minutes and an incubation temperature of 37° C. are chosen. The enzyme activity used is 0.91 U/ml. The measurements are carried out in an Autoanalyser (Cobas Bio) made by Hofmann LaRoche. The potential inhibitory substances are used in concentrations of 10 μM in the screening, the inhibition of the tryptase being given in percent. The IC50 is determined at over 70% inhibition (concentration at which 50% of the enzyme activity is inhibited). After 5 minutes' pre-incubation of the potential inhibitory substances, the substrate is added to start the reaction, the formation of p-nitroaniline being taken as a measurement of the enzyme activity after 5 minutes, after testing the linearity.
The data obtained after the above test has been carried out (% inhibition) are assembled in Table 25 for the compounds according to the invention. The IC50 values obtained for the compounds according to the invention can be found in Table 26.
Table 26 contains the IC50 binding values obtained for the compounds according to the invention. These were measured as described above.
Turning to “2-[2-(4-amidinophenyl)ethyl]-1-cyclopropylmethyl-benzimidazol-5-yl-carboxylic acid-N-[4-(amino-methyl)-benzyl]-N-(3-pyridyl)-amide [Example 138]”, inhibition was half-maximal at 431 nM (IC50). Regarding `CN(Cc1cccnc1)C(=O)c1ccc2c(c1)nc(CCc1ccc(C(=N)N)cc1)n2C` [Example 1, 2-[2-(4-Amidinophenyl)ethyl]-1-methyl-benzimidazol-5-yl-carboxylic Acid-N-(pyridin-3-yl-methyl)-N-methyl-amide-hydrochloride], half-maximal inhibition (IC50) required 887 nM. Compound `CN(C)CCN(C)C(=O)c1ccc2c(c1)nc(CCc1ccc(C(=N)N)cc1)n2C` [Example 3, 2-[2-(4-Amidinophenyl)-ethyl]1l-methyl-benzimidazol-5-yl-carboxylic Acid-N-[2-(N,N-dimethylamino)-ethyl]-N-methyl-amide-dihydrochlonide] had an IC50 of 660 nM. `CN(Cc1ccc(C(=N)N)cc1)C(=O)c1ccc2c(c1)nc(CCc1ccc(C(=N)N)cc1)n2C` [Example 4, 2-[2-(4-Amidinophenyl)-ethyl]-1-methyl-benzimidazol-5-yl-carboxylic Acid-N-(4-amidino-benzyl)-N-methyl-amide-trihydrochloride]: the IC50 came out at 81 nM. In the case of `CCOC(=O)CN(Cc1ccc(C(=N)N)cc1)C(=O)c1ccc2c(c1)nc(CCc1ccc(C(=N)N)cc1)n2C` [Example 5, 2-[2-(4-Amidinophenyl)-ethyl]-1-methyl-benzimidazol-5-yl-carboxylic Acid-N-(4-amidino-benzyl)-N-ethoxycarbonylmethyl-amide-dihydrochloride], the IC50 turned out to be 245 nM. Regarding `CN(Cc1ccc(N(C)C)cc1)C(=O)c1ccc2c(c1)nc(CCc1ccc(C(=N)N)cc1)n2C` [Example 6, 2-[2-(4-Amidinophenyl)-ethyl]-1-methyl-benzimidazol-5-yl-carboxylic Acid-N-(4-dimethylaminobenzyl)-N-methyl-amide-hydrochloride], the concentration for half-maximal inhibition (IC50) amounted to 571 nM. On the same count and under the same terms, under `CN(CCC(=N)N)C(=O)c1ccc2c(c1)nc(CCc1ccc(C(=N)N)cc1)n2C` [Example 7, 2-[2-(4-Amidinophenyl)-ethyl]-1-methyl-benzimidazol-5-yl-carboxylic Acid-N-(2-amidinoethyl)-N-methyl-amide-dihydrochloride] stands 670 nM. For the compound `Cn1c(CCc2ccc(C(=N)N)cc2)nc2cc(C(=O)N(CCC(=N)N)Cc3cnc4ccccc4c3)ccc21` [Example 8, 2-[2-(4-Amidinophenyl)-ethyl]-1-methyl-benzimidazol-5-yl-carboxylic Acid-N-(2-amidinoethyl)-N-(quinolin-3-yl-methyl)-amide-dihydrochloride], half-maximal inhibition (IC50) required 201 nM. Take `Cn1c(CCc2ccc(C(=N)N)cc2)nc2cc(C(=O)N(CCC(=N)N)Cc3ccccc3)ccc21` [Example 9, 2-[2-(4-Amidinophenyl)-ethyl]-1-methyl-benzimidazol-5-yl-carboxylic Acid-N-(2-amidinoethyl)-N-benzyl-amide-dihydrochloride]: the IC50 turned out to be 140 nM.

Turning to `Cn1c(CCc2ccc(C(=N)N)cc2)nc2cc(C(=O)N(CCC(=N)N)Cc3cccnc3)ccc21` [Example 10, 2-[2-(4-Amidinophenyl)-ethyl]-1-methyl-benzimidazol-5-yl-carboxylic Acid-N-(2-amidinoethyl)-N-(3-pyridylmethyl)-amide-dihydrochloride], the IC50 worked out at 316 nM. In turn, `CC(C)CN(CCC(=N)N)C(=O)c1ccc2c(c1)nc(CCc1ccc(C(=N)N)cc1)n2C` [Example 11, 2-[2-(4-Amidinophenyl)-ethyl]-1-methyl-benzimidazol-5-yl-carboxylic Acid-N-(2-amidinoethyl)-N-iso-butyl-amide-dihydrochloride] came in with an IC50 of 86 nM.

With `Cn1c(CCc2ccc(C(=N)N)cc2)nc2cc(C(=O)NCCCc3ccccc3)ccc21` [Example 12, 2-[2-(4-Amidinophenyl)-ethyl]-1-methyl-benzimidazol-5-yl-carboxylic Acid-N-(3-phenylpropyl)-amide-hydrochloride], the half-inhibitory concentration (IC50) turned out to be 479 nM. `Cc1ccccc1N1CCCN(C(=O)c2ccc3c(c2)nc(CCc2ccc(C(=N)N)cc2)n3C)CC1` [Example 15, 2-[2-(4-Amidinophenyl)-ethyl]-1-methyl-benzimidazol-5-yl-carboxylic Acid-[N′-(2-methyl-phenyl)-diazepide]-hydrochloride] displayed an IC50 of 98 nM. Still for that read-out and setting: under `Cn1c(CCc2ccc(C(=N)N)cc2)nc2cc(C(=O)N(CCCc3ccccc3)Cc3ccc(C(=N)N)cc3)ccc21` [Example 16, 2-[2-(4-Amidinophenyl)-ethyl]-1-methyl-benzimidazol-5-yl-carboxylic Acid-N-(4-amidinobenzyl)-N-(3-phenylpropyl)-amide-dihydrochloride] stands 154 nM. Turning to `Cn1c(CCc2ccc(C(=N)N)cc2)nc2cc(C(=O)N(CCC(c3ccccc3)c3ccccc3)Cc3ccc(C(=N)N)cc3)ccc21` [Example 17, 2-[2-(4-Amidinophenyl)-ethyl]-1-methyl-benzimidazol-5-yl-carboxylic Acid-N-(4-amidinobenzyl)-N-(3,3-diphenylpropyl)-amide-dihydrochloride], the IC50 is 107 nM. For `CN(C(=O)c1ccc2c(c1)nc(CCc1ccc(C(=N)N)cc1)n2C)c1cccnc1` [Example 18, 2-[2-(4-Amidinophenyl)-ethyl]-1-methyl-benzimidazol-5-yl-carboxylic Acid-N-methyl-N-(3-pyridyl)-amide-hydrochloride], half-maximal inhibition (IC50) was put at 312 nM. Take `Cn1c(CCc2ccc(C(=N)N)cc2)nc2cc(C(=O)N(CCN(Cc3ccccc3)Cc3ccccc3)c3ccccc3)ccc21` [Example 19]: the concentration for half-maximal inhibition (IC50) is 32 nM. Against the preceding compound, the IC50 is about 9.8-fold lower. As to `Cn1c(CCc2ccc(C(=N)N)cc2)nc2cc(C(=O)N(CCC(=N)N)c3ccc4ccccc4c3)ccc21` [Example 20, 2-[2-(4-Amidinophenyl)-ethyl]-1-methyl-benzimidazol-5-yl-carboxylic Acid-N-(2-amidinoethyl)-N-(2-naphthyl)-amide-dihydrochloride], the IC50 is 310 nM.

Regarding `Cn1c(CCc2ccc(C(=N)N)cc2)nc2cc(C(=O)N(CCC(=N)N)c3ccccc3)ccc21` [Example 21, 2-[2-(4-Amidinophenyl)-ethyl]-1-methyl-benzimidazol-5-yl-carboxylic Acid-N-(2-amidinoethyl)-N-phenyl-amide-dihydrochloride], it took 51 nM to reach half-maximal inhibition (IC50). For the compound `CCc1cccc(N(CCC(=N)N)C(=O)c2ccc3c(c2)nc(CCc2ccc(C(=N)N)cc2)n3C)c1` [Example 22, 2-[2-(4-Amidinophenyl)-ethyl]-1-methyl-benzimidazol-5-yl-carboxylic Acid-N-(2-amidinoethyl)-N-(3-ethyl-phenyl)-amide-dihydrochloride], the IC50 came to 56 nM.

Staying with this test, now noted: inhibition of rh beta tryptase at 10 μM test substance; substrate N-p-tosyl-Gly-Pro-Lys-para-nitroaniline 0.6 mM, pH 7.4, 37° C., 5 minutes.
For the compound “2-[2-(4-amidinophenyl)ethyl]-1-cyclopropylmethyl-benzimidazol-5-yl-carboxylic acid-N-[4-(amino-methyl)-benzyl]-N-(3-pyridyl)-amide [Example 138]”, the “% Inhibition (10 μM)” value was determined as 72%. Regarding “2-[2-(4-amidinophenyl)ethyl]-1-{3-[4-(2-methylphenyl)-piperazin-1-yl]-propyl}-benzimidazol-5-yl-carboxylic acid-N-[4-(amino-methyl)-benzyl]-N-(2-pyridyl)-amide [Example 128]”, the “% Inhibition (10 μM)” value stood at 51%. Take “2-[2-(4-amidinophenyl)ethyl]-1-{3-[4-(2-methylphenyl)-piperazin-1-yl]-propyl}-benzimidazol-5-yl-carboxylic acid-N-[4-(amino-methyl)-benzyl]-N-(3-pyridyl)-amide [Example 144]”: the “% Inhibition (10 μM)” value worked out at 54%.

What is called IC50 is the concentration needed to halve the response being measured.
